Data: publication PMC12673918, “Design, Synthesis, and Selective Antiproliferative Activity of Indolizine Derivatives as Microtubule Destabilizers” (Archiv Der Pharmazie, 2025)
Like-named read-outs stand apart in the source and are kept apart here.

Tests used:
Assay type in all cases: cell-based
[1] = system: CAL‐27 (oral carcinoma); assay: Resazurin cell viability assay, CAL‐27; conditions: Homo sapiens, CAL-27; for inhibition at 50 µM: read-out: % Cellular growth inhibition (at 50 µM) CAL‐27
Outline: (§1)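 Cells in DMEM/10% FBS, 1 × 10^3 per well, adhered overnight, then treated with compounds (0–50 µM) for 72 h. Viability read as fluorescence (ex 530, em 590 nm) after 4 h with 44 µM resazurin. % growth inhibition at 50 µM and IC50 by nonlinear regression, triplicates.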

[2] = system: BT‐20 (breast carcinoma); assay: Resazurin cell viability assay, BT‐20; conditions: Homo sapiens, BT-20; for inhibition at 50 µM: read-out: % Cellular growth inhibition (at 50 µM) BT‐20
Outline: as §1

[3] = molecular target: T1, human P2X7 receptor (Homo sapiens, UniProt Q99572); assay: YO‐PRO‐1 dye uptake assay for the P2X7 receptor; conditions: for inhibition at 10 µM: P2X7, read-out: % Inhibition of P2X7R at 10 µM compounds’ concentration; for off‐target activity against the P2X7 receptor: 10 μM
T1 construct: host or cells: HEK-293
T1 sequence (Q99572 1-595): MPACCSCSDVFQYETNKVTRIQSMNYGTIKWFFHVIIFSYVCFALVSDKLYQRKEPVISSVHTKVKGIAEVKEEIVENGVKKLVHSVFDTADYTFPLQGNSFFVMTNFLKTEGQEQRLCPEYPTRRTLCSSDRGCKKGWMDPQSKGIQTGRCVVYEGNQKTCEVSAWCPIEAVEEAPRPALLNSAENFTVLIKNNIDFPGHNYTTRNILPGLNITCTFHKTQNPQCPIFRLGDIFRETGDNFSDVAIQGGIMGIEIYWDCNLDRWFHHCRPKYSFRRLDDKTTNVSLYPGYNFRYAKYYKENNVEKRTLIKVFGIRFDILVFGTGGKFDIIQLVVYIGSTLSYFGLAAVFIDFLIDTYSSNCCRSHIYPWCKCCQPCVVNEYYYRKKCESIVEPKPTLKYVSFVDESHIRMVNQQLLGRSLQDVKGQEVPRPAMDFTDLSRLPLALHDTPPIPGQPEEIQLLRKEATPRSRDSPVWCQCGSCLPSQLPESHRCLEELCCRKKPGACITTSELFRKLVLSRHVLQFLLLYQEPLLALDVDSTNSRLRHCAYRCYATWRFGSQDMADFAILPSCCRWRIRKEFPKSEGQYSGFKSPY
Method: HEK‐293 cell lines stably expressing human P2X7 receptor (hP2X7R‐HEK‐293, B'SYS GmbH, Witterswil, Switzerland) were maintained in a 50/50 mix of Dulbecco's Modified Eagle Medium and F12 medium (DMEM/F12) supplemented with 9% (v/v) FCS, 1% (v/v) Penicillin/Streptomycin (10000 I.U./mL, 10 mg/mL in 0.9% NaCl) and G418 (100 µg/mL) at 37°C and 5% CO2. Cells were subcultured in cell culture 75 cm^2 flasks and split every 2‐4 days (1:3; 1:6; 1:10) once confluent.
HEK‐293 cell lines stably expressing human P2X7 receptor were seeded into black‐walled Nunc 96‐well optical bottom plates (Thermo Fisher Scientific) at 2.0–4.0 × 10^4 cells/well and incubated at 37°C for 24–48 h. After removing the culture medium, cells were washed with 100 µL wash buffer (280 mM Sucrose; 5.6 mM KCl; 0.5 mM CaCl2; 10 mM D‐Glucose; 10 mM HEPES; 5 mM N‐Methyl‐D‐glucamine (pH 7.4)). Then, 50 µL assay buffer (280 mM Sucrose; 6.4 mM KCl, 10 mM D‐Glucose; 10 mM HEPES; 5.0 mM N‐Methyl‐D‐glucamine (pH 7.4)) and 50 µL of antagonist dilutions (10^–5–10^–9 M) in assay buffer were added, and the cells were incubated at 37°C for 30 min. […] Finally, the uptake of YO‐PRO‐1 dye was recorded in a 9‐point‐well scan by following the fluorescence change using a FlexStation 3 Multi‐Mode Microplate Reader (Molecular Devices, San Jose, CA, USA, Software SoftMax7 Pro, endpoint protocol, well scan with reading pattern “fill scan”, λ ex = 485 nm, λ em = 535 nm). To determine the concentration‐dependent uptake inhibition by antagonists, the YO‐PRO‐1 uptake, expressed as RFU, was plotted against the concentrations of the compounds.

[4] = 72 h, mean ± SD, n = 3, read-out: IC50 (nM) CAL‐27
[5] = 72 hours, triplicate, read-out: IC50 (nM, Cellular growth inhibition) CAL-27 (supplement)
[6] = 72 h, mean ± SD, n = 3, read-out: IC50 (nM) BT‐20
[7] = 72 hours, triplicate, read-out: IC50 (nM, Cellular growth inhibition) BT-20 (supplement)

| SMILES | IC50 [1, 4] [nM] | IC50 [1, 5] [nM] | IC50 [2, 6] [nM] | IC50 [2, 7] [nM] | inhibition at 10 µM [3] [%] | inhibition at 50 µM ([1]; 72 h, mean ± SD, n = 3) [%] | inhibition at 50 µM ([2]; 72 h, mean ± SD, n = 3) [%] | off‐target activity against the P2X7 receptor [3] |
| --- | --- | --- | --- | --- | --- | --- | --- | --- |
| COc1ccc2c(C(=O)c3cc(OC)c(OC)c(OC)c3)c(C(F)(F)F)cn2c1 [Compound 8e, [6‐methoxy‐2‐(trifluoromethyl)indolizin‐1‐yl](3,4,5‐trimethoxyphenyl)methanone] | 75 ± 21 | 117 ± 32 | 105 ± 49 | 75 ± 21 | 8 | 76 ± 1.3 | 62 ± 2.3 | none of the synthesized compounds, including 8e and 8h, showed significant activity |
| COc1ccc2c(C(=O)c3cc(OC)c(OC)c(OC)c3)c(C(C)(C)C)cn2c1 [Compound 8b, [2‐(Tert‐Butyl)‐6‐Methoxyindolizin‐1‐yl](3,4,5‐Trimethoxyphenyl)Methanone] | – | – | – | – | -7 | 84 ± 3.2 | 62 ± 0.5 | – |
| COc1ccc(-c2cn3cc(OC)ccc3c2C(=O)c2cc(OC)c(OC)c(OC)c2)cc1 [Compound 8k, [6‐methoxy‐2‐(4‐methoxyphenyl)indolizin‐1‐yl](3,4,5‐trimethoxyphenyl)methanone] | 690 ± 156 | 880 ± 14 | 800 ± 127 | 690 ± 156 | 10 | 73 ± 4.5 | 64 ± 1.5 | – |
| CCCc1cn2cc(OC)ccc2c1C(=O)c1cc(OC)c(OC)c(OC)c1 [Compound 8h, (6‐methoxy‐2‐propylindolizin‐1‐yl)(3,4,5‐trimethoxyphenyl)methanone] | 47 ± 18 | 75 ± 35 | 90 ± 56 | 47 ± 18 | -1 | 90 ± 1.8 | 71 ± 2.8 | none of the synthesized compounds, including 8e and 8h, showed significant activity |

Second part, led by results:

| IC50 [1, 4] [nM] | IC50 [1, 5] [nM] | IC50 [2, 6] [nM] | IC50 [2, 7] [nM] | inhibition at 10 µM [3] [%] | SMILES | inhibition at 50 µM ([1]; 72 h, mean ± SD, n = 3) [%] | inhibition at 50 µM ([2]; 72 h, mean ± SD, n = 3) [%] | off‐target activity against the P2X7 receptor [3] |
| --- | --- | --- | --- | --- | --- | --- | --- | --- |
| 325 ± 92 | 410 ± 212 | 370 ± 28 | 325 ± 92 | 9 | COc1ccc2c(C(=O)c3cc(OC)c(OC)c(OC)c3)c(C)cn2c1 [Compound 8a, (6‐methoxy‐2‐methylindolizin‐1‐yl)(3,4,5‐trimethoxyphenyl)methanone] | 64 ± 2.7 | 52 ± 5 | – |
| 300 ± 85 | 465 ± 35 | 465 ± 35 | 300 ± 85 | -2 | COc1ccc2c(C(=O)c3cc(OC)c(OC)c(OC)c3)c(-c3ccc(C)cc3)cn2c1 [Compound 8j, [6‐methoxy‐2‐(p ‐tolyl)indolizin‐1‐yl](3,4,5‐trimethoxyphenyl)methanone] | 73 ± 4 | 61 ± 2 | – |
| 12400 | 11900 | 14100 | 12400 | 4 | COc1ccc2c(C(=O)c3ccc(Cl)c(Cl)c3)ccn2c1 [Compound 7e, (6‐methoxyindolizin‐1‐yl)(3,4‐dichlorophenyl)methanone] | 70 ± 3.8 | 53 ± 1.8 | – |
